Here are results for three molecules from ChEMBL document CHEMBL1201862, “PubChem BioAssay data set” (2004).

Structures are written as SMILES. Activity calls are given as the source filed them. A value given as a limit tells only on which side of the number the result lay.

Assay type in all cases: functional
Test [1] has as its target Hepatocyte growth factor receptor (Homo sapiens, UniProt P08581).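 Note: kinase panel profiling across the kinome, with MET as the panel member.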
The target of test [2] is T1, Serine/threonine-protein kinase TAO1 (Homo sapiens, UniProt Q7L7X3).
T1 sequence (Q7L7X3 whole entry): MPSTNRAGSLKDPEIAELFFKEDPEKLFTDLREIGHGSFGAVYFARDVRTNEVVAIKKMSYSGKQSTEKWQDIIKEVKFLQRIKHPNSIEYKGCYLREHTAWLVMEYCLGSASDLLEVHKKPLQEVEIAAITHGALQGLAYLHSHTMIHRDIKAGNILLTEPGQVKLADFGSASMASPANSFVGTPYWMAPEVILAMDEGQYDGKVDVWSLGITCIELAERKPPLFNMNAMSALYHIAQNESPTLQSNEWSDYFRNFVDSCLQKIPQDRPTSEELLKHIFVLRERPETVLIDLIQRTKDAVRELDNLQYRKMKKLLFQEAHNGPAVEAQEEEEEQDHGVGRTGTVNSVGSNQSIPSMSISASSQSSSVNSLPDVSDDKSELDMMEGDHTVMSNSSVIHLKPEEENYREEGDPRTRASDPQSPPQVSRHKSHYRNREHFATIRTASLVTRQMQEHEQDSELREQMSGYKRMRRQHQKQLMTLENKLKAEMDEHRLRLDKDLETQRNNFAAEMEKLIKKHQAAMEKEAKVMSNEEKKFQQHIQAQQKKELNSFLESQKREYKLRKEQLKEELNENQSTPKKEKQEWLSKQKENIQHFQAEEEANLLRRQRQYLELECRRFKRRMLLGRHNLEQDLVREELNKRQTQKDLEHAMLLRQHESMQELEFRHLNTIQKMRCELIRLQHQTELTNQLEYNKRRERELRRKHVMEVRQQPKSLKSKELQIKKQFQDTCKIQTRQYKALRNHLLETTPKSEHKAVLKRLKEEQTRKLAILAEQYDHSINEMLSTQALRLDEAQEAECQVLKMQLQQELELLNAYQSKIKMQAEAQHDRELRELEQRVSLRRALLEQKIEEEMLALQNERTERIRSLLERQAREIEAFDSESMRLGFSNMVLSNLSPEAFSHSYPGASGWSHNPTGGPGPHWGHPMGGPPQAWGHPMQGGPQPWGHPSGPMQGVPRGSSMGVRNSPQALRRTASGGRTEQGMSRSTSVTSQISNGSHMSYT

Test [3] deals with T2, Serine/threonine-protein kinase Nek2 (Homo sapiens, UniProt P51955).
T2 sequence (P51955 whole entry): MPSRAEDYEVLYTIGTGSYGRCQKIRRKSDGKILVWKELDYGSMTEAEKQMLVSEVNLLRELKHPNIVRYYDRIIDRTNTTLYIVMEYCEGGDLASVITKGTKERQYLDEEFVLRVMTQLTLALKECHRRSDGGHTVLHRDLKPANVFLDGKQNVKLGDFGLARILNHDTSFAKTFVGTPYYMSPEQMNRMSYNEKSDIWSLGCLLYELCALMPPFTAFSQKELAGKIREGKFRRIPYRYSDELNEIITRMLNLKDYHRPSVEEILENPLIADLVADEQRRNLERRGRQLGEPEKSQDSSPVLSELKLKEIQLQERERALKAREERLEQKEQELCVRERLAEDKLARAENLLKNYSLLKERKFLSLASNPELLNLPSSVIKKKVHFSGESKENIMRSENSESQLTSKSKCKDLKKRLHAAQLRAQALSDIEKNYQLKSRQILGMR

For test [4], the target named is Serine/threonine-protein kinase pim-1 (Homo sapiens, UniProt P11309).
The target in test [5] is Leucine-rich repeat serine/threonine-protein kinase 2 (Homo sapiens, UniProt Q5S007).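 Note: value from a broad kinome-wide panel profiling study in which LRRK2 was one of the kinases tested.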
The target of test [6] is ALK tyrosine kinase receptor (Homo sapiens, UniProt Q9UM73).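 Note: ALK tested as one member of a kinase panel screen.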
For test [7], the target named is Proto-oncogene tyrosine-protein kinase receptor Ret (Homo sapiens, UniProt P07949).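 Note: measured within a kinome-wide profiling panel, RET as the panel member.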
Test [8] deals with Tyrosine-protein kinase Fyn (Homo sapiens, UniProt P06241).
Test [9] deals with Dual specificity mitogen-activated protein kinase kinase 2 (Homo sapiens, UniProt P36507). The test is described as follows: Navigating the Kinome. Panel member name: MAP2K2.
For another test, the target named is T3, Aurora kinase A (Homo sapiens, UniProt O14965).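 Note: value from the Navigating the Kinome kinase panel profiling, panel entry STK6.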
T3 sequence (O14965 whole entry): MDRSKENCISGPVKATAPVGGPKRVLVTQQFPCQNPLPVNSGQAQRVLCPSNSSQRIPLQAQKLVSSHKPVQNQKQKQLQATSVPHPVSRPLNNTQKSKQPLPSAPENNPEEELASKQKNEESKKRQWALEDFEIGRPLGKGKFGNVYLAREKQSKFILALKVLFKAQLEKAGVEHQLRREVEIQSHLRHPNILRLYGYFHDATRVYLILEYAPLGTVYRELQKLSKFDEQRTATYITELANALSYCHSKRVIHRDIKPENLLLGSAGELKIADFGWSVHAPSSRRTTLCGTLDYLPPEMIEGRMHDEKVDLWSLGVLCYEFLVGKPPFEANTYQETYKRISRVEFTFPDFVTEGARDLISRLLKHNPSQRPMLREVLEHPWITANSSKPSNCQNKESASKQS

Test [10] concerns the target Dual specificity protein kinase CLK2 (Homo sapiens, UniProt P49760).
Test [11] deals with Dual specificity tyrosine-phosphorylation-regulated kinase 1A (Homo sapiens, UniProt Q13627).
For test [12], the target named is T4, cAMP-dependent protein kinase catalytic subunit PRKX (Homo sapiens, UniProt P51817).
T4 sequence (P51817 whole entry): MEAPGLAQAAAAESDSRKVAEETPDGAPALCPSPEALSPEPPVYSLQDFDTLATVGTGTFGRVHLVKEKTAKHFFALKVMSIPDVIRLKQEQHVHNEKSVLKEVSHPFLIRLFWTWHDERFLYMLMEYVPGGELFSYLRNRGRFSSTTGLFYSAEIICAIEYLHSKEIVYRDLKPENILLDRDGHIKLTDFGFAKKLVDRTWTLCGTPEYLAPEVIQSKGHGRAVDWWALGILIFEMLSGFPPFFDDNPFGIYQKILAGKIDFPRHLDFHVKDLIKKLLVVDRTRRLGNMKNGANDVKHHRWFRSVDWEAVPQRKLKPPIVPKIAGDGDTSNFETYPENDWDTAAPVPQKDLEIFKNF

A further test has as its target LIM domain kinase 1 (Homo sapiens, UniProt P53667). Nature of the test: Navigating the Kinome. Panel member name: LIMK1.
The target in test [13] is Macrophage-stimulating protein receptor (Homo sapiens, UniProt Q04912). The test is described as follows: Navigating the Kinome. Panel member name: MST1R.
Test [14] deals with 5'-AMP-activated protein kinase catalytic subunit alpha-1 (Homo sapiens, UniProt Q13131).

Sequence of Leucine-rich repeat serine/threonine-protein kinase 2 (Q5S007 whole entry): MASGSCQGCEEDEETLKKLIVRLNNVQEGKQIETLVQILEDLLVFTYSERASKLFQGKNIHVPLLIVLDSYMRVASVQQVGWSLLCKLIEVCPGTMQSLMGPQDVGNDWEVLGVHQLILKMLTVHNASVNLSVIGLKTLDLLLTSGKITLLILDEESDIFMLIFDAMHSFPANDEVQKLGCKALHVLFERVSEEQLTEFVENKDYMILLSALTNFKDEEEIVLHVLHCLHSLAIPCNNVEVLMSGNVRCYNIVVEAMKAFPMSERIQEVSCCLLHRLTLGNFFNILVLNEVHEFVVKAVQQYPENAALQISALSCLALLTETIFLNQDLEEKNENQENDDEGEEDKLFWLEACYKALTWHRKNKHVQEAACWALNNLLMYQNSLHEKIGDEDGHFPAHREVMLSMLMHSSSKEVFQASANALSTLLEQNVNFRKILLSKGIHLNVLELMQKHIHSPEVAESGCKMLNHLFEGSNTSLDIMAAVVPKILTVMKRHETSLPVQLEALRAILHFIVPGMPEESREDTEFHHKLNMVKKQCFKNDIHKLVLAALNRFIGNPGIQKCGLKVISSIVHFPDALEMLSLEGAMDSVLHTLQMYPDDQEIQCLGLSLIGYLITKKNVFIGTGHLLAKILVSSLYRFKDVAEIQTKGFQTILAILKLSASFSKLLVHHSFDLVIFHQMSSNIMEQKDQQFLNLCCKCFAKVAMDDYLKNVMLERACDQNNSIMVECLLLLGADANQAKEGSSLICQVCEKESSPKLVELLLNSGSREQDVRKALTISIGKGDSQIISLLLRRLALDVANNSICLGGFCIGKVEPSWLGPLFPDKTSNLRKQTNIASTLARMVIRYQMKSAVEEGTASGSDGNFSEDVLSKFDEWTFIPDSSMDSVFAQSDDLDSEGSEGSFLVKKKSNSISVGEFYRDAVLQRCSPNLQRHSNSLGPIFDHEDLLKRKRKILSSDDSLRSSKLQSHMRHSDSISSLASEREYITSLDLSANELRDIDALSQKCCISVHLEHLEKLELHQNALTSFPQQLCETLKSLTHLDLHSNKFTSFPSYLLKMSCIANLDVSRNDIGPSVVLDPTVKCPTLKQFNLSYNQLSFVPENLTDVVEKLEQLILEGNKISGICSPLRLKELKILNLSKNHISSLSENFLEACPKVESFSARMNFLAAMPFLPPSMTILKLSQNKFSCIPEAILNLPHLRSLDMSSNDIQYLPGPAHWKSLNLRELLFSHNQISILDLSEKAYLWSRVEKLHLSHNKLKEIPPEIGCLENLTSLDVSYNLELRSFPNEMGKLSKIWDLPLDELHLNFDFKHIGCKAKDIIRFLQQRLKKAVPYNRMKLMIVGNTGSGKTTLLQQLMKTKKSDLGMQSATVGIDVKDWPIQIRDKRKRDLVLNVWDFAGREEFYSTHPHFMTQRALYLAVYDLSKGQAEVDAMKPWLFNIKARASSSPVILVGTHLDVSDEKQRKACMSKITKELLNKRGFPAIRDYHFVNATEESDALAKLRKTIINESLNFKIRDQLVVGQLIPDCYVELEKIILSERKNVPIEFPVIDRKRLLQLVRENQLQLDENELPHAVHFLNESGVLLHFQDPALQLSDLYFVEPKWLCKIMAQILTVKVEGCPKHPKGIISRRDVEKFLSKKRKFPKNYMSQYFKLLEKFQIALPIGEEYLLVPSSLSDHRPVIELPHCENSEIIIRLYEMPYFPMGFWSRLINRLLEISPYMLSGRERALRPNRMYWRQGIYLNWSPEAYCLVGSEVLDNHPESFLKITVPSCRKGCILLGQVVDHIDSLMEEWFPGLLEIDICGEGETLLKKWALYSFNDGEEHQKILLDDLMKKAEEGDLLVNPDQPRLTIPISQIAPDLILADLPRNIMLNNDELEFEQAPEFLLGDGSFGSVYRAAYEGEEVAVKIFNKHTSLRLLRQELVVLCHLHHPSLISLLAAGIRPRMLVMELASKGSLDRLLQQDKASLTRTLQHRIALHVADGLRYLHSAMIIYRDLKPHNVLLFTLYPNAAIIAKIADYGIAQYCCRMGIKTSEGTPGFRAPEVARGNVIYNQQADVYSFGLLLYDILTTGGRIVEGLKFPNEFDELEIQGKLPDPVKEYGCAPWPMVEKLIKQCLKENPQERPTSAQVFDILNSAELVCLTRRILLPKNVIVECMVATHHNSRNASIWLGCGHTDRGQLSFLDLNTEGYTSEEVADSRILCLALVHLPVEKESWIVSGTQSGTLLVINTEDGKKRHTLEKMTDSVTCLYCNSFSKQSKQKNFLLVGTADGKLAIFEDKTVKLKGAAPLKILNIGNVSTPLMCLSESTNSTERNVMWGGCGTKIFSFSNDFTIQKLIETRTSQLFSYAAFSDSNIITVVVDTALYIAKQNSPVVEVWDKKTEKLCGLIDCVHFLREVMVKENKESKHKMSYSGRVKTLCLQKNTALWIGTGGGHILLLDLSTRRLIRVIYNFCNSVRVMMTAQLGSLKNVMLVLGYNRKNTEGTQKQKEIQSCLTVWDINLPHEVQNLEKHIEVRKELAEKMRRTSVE
Sequence of Proto-oncogene tyrosine-protein kinase receptor Ret (P07949 whole entry): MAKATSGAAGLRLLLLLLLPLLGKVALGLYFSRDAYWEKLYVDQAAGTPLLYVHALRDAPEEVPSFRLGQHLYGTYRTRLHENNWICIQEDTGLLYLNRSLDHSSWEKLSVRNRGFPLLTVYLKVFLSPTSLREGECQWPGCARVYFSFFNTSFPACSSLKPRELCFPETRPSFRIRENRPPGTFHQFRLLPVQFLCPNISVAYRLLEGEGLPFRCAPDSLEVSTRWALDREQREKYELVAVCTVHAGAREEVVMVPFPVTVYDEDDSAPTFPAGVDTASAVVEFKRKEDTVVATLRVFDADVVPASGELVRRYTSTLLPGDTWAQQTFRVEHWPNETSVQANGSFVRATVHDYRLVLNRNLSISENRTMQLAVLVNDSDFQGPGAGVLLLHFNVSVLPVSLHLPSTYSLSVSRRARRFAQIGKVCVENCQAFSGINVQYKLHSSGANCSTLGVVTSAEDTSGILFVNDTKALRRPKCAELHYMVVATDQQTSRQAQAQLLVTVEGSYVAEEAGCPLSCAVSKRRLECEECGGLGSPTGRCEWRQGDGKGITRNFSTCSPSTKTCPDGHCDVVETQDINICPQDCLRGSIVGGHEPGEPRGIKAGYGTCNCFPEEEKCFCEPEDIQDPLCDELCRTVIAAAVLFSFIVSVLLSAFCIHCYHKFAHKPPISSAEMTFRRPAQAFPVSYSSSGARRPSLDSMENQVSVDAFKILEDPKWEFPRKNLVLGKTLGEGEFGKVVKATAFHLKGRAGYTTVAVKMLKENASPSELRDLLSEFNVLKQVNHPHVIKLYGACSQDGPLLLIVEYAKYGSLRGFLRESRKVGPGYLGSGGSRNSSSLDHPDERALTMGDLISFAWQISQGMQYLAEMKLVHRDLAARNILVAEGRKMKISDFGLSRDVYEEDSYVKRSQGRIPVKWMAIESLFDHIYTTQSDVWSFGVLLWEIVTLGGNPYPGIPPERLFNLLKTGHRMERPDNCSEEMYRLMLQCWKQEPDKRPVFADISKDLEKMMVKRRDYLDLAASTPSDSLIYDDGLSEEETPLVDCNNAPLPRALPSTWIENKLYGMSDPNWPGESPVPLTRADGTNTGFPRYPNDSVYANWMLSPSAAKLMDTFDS
Sequence of Dual specificity protein kinase CLK2 (P49760 whole entry): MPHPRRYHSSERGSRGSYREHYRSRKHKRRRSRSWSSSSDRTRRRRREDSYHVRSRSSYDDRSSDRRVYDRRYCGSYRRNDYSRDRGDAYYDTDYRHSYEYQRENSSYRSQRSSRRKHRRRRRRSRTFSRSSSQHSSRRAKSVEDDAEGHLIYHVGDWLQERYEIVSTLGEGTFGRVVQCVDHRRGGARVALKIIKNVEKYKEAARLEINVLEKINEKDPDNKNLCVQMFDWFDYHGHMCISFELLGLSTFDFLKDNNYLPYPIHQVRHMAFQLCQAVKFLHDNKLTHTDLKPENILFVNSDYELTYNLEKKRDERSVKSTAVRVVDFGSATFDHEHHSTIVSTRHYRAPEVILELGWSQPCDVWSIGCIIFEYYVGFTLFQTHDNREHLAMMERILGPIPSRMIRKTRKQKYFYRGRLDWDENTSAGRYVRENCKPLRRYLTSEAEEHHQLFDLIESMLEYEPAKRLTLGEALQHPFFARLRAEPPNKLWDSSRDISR
Sequence of LIM domain kinase 1 (P53667 whole entry, the tested form may be a part): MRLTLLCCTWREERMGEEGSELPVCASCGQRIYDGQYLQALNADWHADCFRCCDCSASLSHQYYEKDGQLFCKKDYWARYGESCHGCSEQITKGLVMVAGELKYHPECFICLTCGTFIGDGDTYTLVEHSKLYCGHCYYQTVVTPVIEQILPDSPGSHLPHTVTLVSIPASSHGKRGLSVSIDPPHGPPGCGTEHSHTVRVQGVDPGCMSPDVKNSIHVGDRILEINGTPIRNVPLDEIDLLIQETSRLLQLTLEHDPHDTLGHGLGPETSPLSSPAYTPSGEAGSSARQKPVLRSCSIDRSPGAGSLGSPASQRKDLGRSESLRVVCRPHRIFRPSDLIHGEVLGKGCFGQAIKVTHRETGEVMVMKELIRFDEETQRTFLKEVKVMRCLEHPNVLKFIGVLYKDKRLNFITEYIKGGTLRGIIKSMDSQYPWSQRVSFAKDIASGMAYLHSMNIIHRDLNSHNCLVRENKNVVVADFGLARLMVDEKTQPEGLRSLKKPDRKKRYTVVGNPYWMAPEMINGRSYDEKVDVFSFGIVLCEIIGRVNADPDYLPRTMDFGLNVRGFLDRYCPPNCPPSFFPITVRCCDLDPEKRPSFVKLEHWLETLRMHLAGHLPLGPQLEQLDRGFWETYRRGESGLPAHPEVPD
Sequence of Serine/threonine-protein kinase pim-1 (P11309 whole entry): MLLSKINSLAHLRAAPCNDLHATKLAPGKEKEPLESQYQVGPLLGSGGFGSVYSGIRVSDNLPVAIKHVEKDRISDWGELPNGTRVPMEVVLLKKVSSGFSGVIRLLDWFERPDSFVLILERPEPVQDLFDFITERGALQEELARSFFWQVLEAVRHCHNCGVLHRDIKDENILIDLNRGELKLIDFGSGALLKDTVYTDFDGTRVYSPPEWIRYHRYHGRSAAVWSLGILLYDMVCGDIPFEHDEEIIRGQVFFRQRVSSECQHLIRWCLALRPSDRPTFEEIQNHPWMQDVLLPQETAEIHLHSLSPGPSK

The Ki is a measure of affinity in units of concentration, obtained from inhibition or displacement. For the molecule `Cc1ccc(C)c(NC(=O)c2cc(-c3ccco3)nc3ccccc23)c1`, the Ki is 631 nM (active) in test [1]; 3980 nM (active) in [2]; 1260 nM (active) in test [3]; 1260 nM (active) in test [4]; 1580 nM (active) in test [5]; > 6310 nM (inactive) in test [6]. For the same molecule, the Ki in [7] was 3160 nM (active); in test [8], > 6310 nM (inactive); in test [9], 3160 nM (active); at Aurora kinase A, 1000 nM (active); in test [10], > 3980 nM (inactive); in [11] it was 631 nM (active). For the same molecule, the Ki in test [12] was 1000 nM (active); at LIM domain kinase 1, 316 nM (active); in test [13] it was 3980 nM (active); in test [14] it was 2000 nM (active).

For `COc1ccc(C2=NNc3cccc4c(OC)ccc2c34)cc1OC`, the Ki in test [1] was 316 nM (active); in [2] it was 1000 nM (active); in [3], 200 nM (active); in [4] it was > 6310 nM (inactive); in [5] it was 251 nM (active); in test [6], 1580 nM (active). Also, the Ki in test [7] was 501 nM (active); in [8], > 6310 nM (inactive); in test [9], > 3980 nM (inactive); on Aurora kinase A, > 1580 nM (inactive); in test [10], 316 nM (active); in test [11] it was 79.4 nM (active). In addition, the Ki was 398 nM (active) in test [12], 31.6 nM (active) on LIM domain kinase 1, 501 nM (active) in test [13] and 794 nM (active) in test [14].

The term pKi denotes −log10 of the Ki, conventionally taken in molar units. A high value points to a low Ki. For `CN1CCC(c2c(O)cc(O)c3c(=O)cc(-c4ccccc4Cl)oc23)C(O)C1` (centres undefined), the Ki is > 2510 nM (inactive) in [1]; 794 nM (active) in [2]; > 6310 nM (inactive) in [3]; 794 nM (active) in test [4]; 1000 nM (active) in test [5]; 631 nM (active) in test [6]. Also, the Ki was > 2000 nM (inactive) in [7]; > 3160 nM (inactive) in test [8]; > 3980 nM (inactive) in test [9]; > 1580 nM (inactive) at Aurora kinase A; > 3160 nM (inactive) in test [10]; 794 nM (active) in [11]. In addition, the Ki in [12] was > 3160 nM (inactive); on LIM domain kinase 1, > 3160 nM (inactive); in [13], > 3980 nM (inactive); in test [14], > 2510 nM (inactive). In addition, in [6], the pKi was 6.2.
